Assays:
[1] = tested on: healthy elderly volunteers; test: Driving performance test after an evening tablet (Example 4); format: in vivo, human; conditions: 2 hours post-dosing; zolpidem 10 mg, melatonin prolonged release 2 mg
Method: (§1) The effect of melatonin (2 mg prolonged-release formulation), N, N, 6-trimethyl-2-p-tolylimidazo[1,2-a]pyridine-3-acetamide (zolpidem; 10 mg) and placebo on psychomotor skills and driving performance were assessed in 16 healthy elderly volunteers age 59.4 years (SD 3.2). In a randomized, double-blind, crossover study the subjects were given a tablet of placebo in the evening to establish baseline and then a tablet of melatonin, zolpidem or placebo in a random order in the evening with one week with no treatment in between treatments. A battery of psychomotor tasks, driving performance and wake EEG during a driving test were studied in the patients at pre-selected intervals after the administration of the tablet.

[2] = tested on: healthy elderly volunteers; test: Battery of psychomotor tasks after an evening tablet (Example 4); format: in vivo, human
Method: as §1

[3] = tested on: elderly primary insomnia patients; test: Full-night polysomnographic recordings after 3 weeks of treatment (Example 1); format: in vivo, human
Method: (§2) The effect of a prolonged-release formulation of melatonin on sleep quantity and quality in 40 elderly primary insomnia patients (aged 76 [SD 8] years) were studied in a randomized, double-blind, two parallel group study. The subjects were treated for 3 weeks every evening with melatonin (2 mg prolonged-release formulation) or placebo. Full-night polysomnographic recordings were performed on the last two days of treatment to measure quantitative aspects of sleep. On each morning following sleep recording in the laboratory, a battery of psychomotor tests was taken by all patients to assess daytime vigilance. In addition, patients recorded every day in diaries their perceived quality of sleep the previous night.

[4] = tested on: elderly primary insomnia patients; test: Patient diaries of perceived quality of sleep (Example 1); format: in vivo, human; conditions: 2 mg prolonged-release formulation, 3 weeks
Method: as §2

[5] = tested on: primary insomnia patients (aged 20-80 years); test: Subjectively assessed quality of sleep and daytime alertness on 100 mm line (Example 3); format: in vivo, human; conditions: for Change in perceived daytime alertness, mean in mm / Change in perceived quality of sleep, mean in mm: 2 mg per night prolonged-release, 3 weeks
Method: The effect of a prolonged-release formulation of melatonin on subjectively assessed sleep quality and daytime vigilance in 170 elderly primary insomnia patients (aged 68.5 [SD 8.3] years) were studied in a randomized, double-blind, two parallel group study. The subjects were treated for 2 weeks with placebo to establish baseline characteristics and then for 3 weeks with melatonin (2 mg per night of prolonged-release formulation) or placebo. On the last three days of the baseline and treatment periods patients were asked to assess the quality of their sleep the previous night and their feeling in the morning. The quality of sleep question was “How would you compare the quality of sleep using the medication with non-medicated (your usual) sleep?” The patients marked the level of their perceived quality of sleep on a 100 mm, non-hatched horizontal line with two endpoints. The left endpoint was labeled “more restless than usual” and the right endpoint was labeled “more restful than usual”. The waking state question was “How do you feel now?” The patients marked the level of their perceived waking state on a 100 mm, non-hatched horizontal line with two endpoints. The left endpoint was labeled “tired” and the right endpoint was labeled “alert”. The distance of the patient mark from the right endpoint in mm was measured (a reduction in value therefore indicates a better sleep or less tired state). The mean distance across the three nights was calculated. The effect of melatonin on subjectively assessed sleep quality and daytime vigilance in 131 primary insomnia patients (aged 20-80 years) were studied in a randomised, double-blind, parallel group study. The subjects were treated for 1 week with placebo to establish baseline characteristics and then for 3 weeks with melatonin (2 mg per night of prolonged-release formulation) or placebo. On the last three days of the baseline and treatment periods patients were asked to assess the quality of their sleep the previous night and their feeling at daytime as described in Example 2.

[6] = tested on: patients with psychophysiological insomnia; conditions: 5 mg at 8:00 pm for 1 week; cited from earlier work
[7] = tested on: elderly patients with sleep maintenance insomnia; conditions: immediate and controlled release formulations, 0.5 and 5 mg, cited from earlier work
insomniac patients = conditions: 75 mg per os at 10 PM daily for 14 consecutive days, cited from earlier work
[8] = tested on: polysomnographically pre-screened insomniacs; conditions: 1 and 5 mg at 10:45 pm for one night each, cited from earlier work
[9] = tested on: elderly primary insomnia patients; test: Subjectively assessed quality of sleep and daytime alertness on 100 mm line (Example 2); format: in vivo, human; conditions: 2 mg per night prolonged-release, 3 weeks
Method: The effect of a prolonged-release formulation of melatonin on subjectively assessed sleep quality and daytime vigilance in 170 elderly primary insomnia patients (aged 68.5 [SD 8.3] years) were studied in a randomized, double-blind, two parallel group study. The subjects were treated for 2 weeks with placebo to establish baseline characteristics and then for 3 weeks with melatonin (2 mg per night of prolonged-release formulation) or placebo. On the last three days of the baseline and treatment periods patients were asked to assess the quality of their sleep the previous night and their feeling in the morning. The quality of sleep question was “How would you compare the quality of sleep using the medication with non-medicated (your usual) sleep?” The patients marked the level of their perceived quality of sleep on a 100 mm, non-hatched horizontal line with two endpoints. The left endpoint was labeled “more restless than usual” and the right endpoint was labeled “more restful than usual”. The waking state question was “How do you feel now?” The patients marked the level of their perceived waking state on a 100 mm, non-hatched horizontal line with two endpoints. The left endpoint was labeled “tired” and the right endpoint was labeled “alert”. The distance of the patient mark from the right endpoint in mm was measured (a reduction in value therefore indicates a better sleep or less tired state). The mean distance across the three nights was calculated.

[10] = tested on: elderly primary insomnia patients; test: Battery of psychomotor tests to assess daytime vigilance (Example 1); format: in vivo, human; conditions: 2 mg prolonged-release formulation
Method: as §2

[11] = zolpidem 10 mg single evening tablet
[12] = 2 mg prolonged-release formulation, 3 weeks, versus placebo

Cc1ccc(-c2nc3ccc(C)cn3c2CC(=O)N(C)C)cc1 [zolpidem, N, N, 6-trimethyl-2-p-tolylimidazo[1,2-a]pyridine-3-acetamide]
number of collisions [1]: increased number of collisions
Memory efficiency, both recalls (immediate and delayed), compared to placebo and melatonin 2 mg ([2]; zolpidem 10 mg): decreased
impairments compared to placebo across measures of attention, episodic secondary memory and motor coordination [2, 11]: several acute impairments
time post-dosing by which acute impairments were resolved [2, 11]: ≤ 12.5 h

COc1ccc2[nH]cc(CCNC(C)=O)c2c1 [melatonin]
sleep onset latency (SL) time shortened on average, compared to placebo ([3]; 2 mg prolonged-release formulation every evening for 3 weeks, P=0.011): 9 min
duration of wake prior sleep onset (DWAPSO) compared to placebo ([3]; 2 mg prolonged-release formulation, 3 weeks, p=0.011): improved significantly
% of time spent asleep prior to sleep onset (DWAPSOP) compared to placebo ([3]; 2 mg prolonged-release formulation, 3 weeks, p=0.02): improved significantly
sleep architecture or all night EEG spectral analysis [3, 12]: no differences between groups
sleep maintenance variables (number of awakenings, DWASO, sleep efficiency, total sleep time) [3, 12]: no differences between melatonin and placebo
ease of getting to sleep as evaluated in diaries, compared to placebo [4]: did not evaluate the ease of getting to sleep as being better
quality of sleep as judged by patients in diaries [4]: improved
quality of sleep and daytime alertness ([5]; 55 years and older patients): improvement
Change in perceived daytime alertness, mean in mm ([5]; Patients aged 55 and over): −16.3 mm
Change in perceived quality of sleep, mean in mm ([5]; Patients aged 55 and over): −13.1 mm
Change in perceived daytime alertness, mean in mm ([5]; Patients aged less than 55): −4.0 mm
Change in perceived quality of sleep, mean in mm ([5]; Patients aged less than 55): −1.6 mm
quality of sleep and daytime alertness compared to placebo ([5]; patients <55 years of age): significant worsening
patients unable to distinguish the period of active melatonin treatment [6]: 8 patients out of 15
sleep quantity or quality [6]: no reported change
sleep latency ([7]; 30 min before sleep): reduced
reported sleep quality or daytime measure of mood and alertness [7]: No melatonin-induced changes
wake time after sleep onset or total sleep time [7]: did not alter
subjective assessment of total sleep time and daytime alertness (insomniac patients; 13 patients): significant increase
patients reporting no significant effect on subjective feelings of well-being (insomniac patients): 7/13
sleep latency, sleep efficiency, total sleep time, wake after sleep onset ([8]; 10 insomniacs): did not alter
patient-reported sleep quality [8]: improved
rested in the morning, patient-reported [8]: not more rested
total sleep time as believed by the patients [8]: shorter
quality of sleep and daytime alertness compared to placebo [9]: significantly improved
Change in perceived quality of sleep, change in mm mean ([9]; 170 elderly patients, reduction = better sleep): −24.3 mm
Change in perceived daytime alertness, change in mm mean ([9]; 170 elderly patients, reduction = less tired): −16.8 mm
Critical Flicker fusion test and total reaction time, melatonin vs. placebo ([10]; at the end of treatment): significant treatment effects
psychomotor skills compared to placebo-treated group ([10]; morning after sleep recording): significantly higher

Source: patent US8962024B2, “Method for treating primary insomnia” (Neurim Pharmaceuticals (1991) Ltd, priority 2001, dated 2015)
